{"source": "the NIST ThermoML archive (doi:10.1021/je0341763)", "key": {"[1]": {"details": "298.15 K; for surface tension liquid-gas: Pendant drop shape; for mass density: 101.33 kPa, Liquid"}, "[2]": {"assay": "xn = mol fraction of the nth substance listed", "details": "298.15 K, Pendant drop shape"}}, "note": "Numbers after ± are expanded uncertainties.", "data": [{"compound": "Cc1cccc(C)c1", "note": "[1,3-dimethylbenzene]", "values": [{"measurement": "surface tension liquid-gas", "setting": "[1]", "result": "28.36 ± 0.3", "unit": "mN/m"}, {"measurement": "mass density", "setting": "[1]", "result": "859.78 ± 0.49", "unit": "kg/m3"}]}, {"compound": "Cc1ccc(C)cc1", "note": "[1,4-dimethylbenzene]", "values": [{"measurement": "surface tension liquid-gas", "setting": "[1]", "result": "27.89 ± 0.29", "unit": "mN/m"}, {"measurement": "mass density", "setting": "[1]", "result": "856.85 ± 0.46", "unit": "kg/m3"}]}, {"compound": "Cc1ccc(C)cc1", "note": "[1,4-dimethylbenzene] + CC(C)=O", "values": [{"measurement": "surface tension liquid-gas", "setting": "[2]; x2 = 0.1027", "result": "27.69 ± 0.29", "unit": "mN/m"}, {"measurement": "surface tension liquid-gas", "setting": "[2]; x2 = 0.2022", "result": "27.41 ± 0.29", "unit": "mN/m"}, {"measurement": "surface tension liquid-gas", "setting": "[2]; x2 = 0.3029", "result": "27.11 ± 0.29", "unit": "mN/m"}, {"measurement": "surface tension liquid-gas", "setting": "[2]; x2 = 0.3993", "result": "26.78 ± 0.28", "unit": "mN/m"}, {"measurement": "surface tension liquid-gas", "setting": "[2]; x2 = 0.5009", "result": "26.41 ± 0.28", "unit": "mN/m"}, {"measurement": "surface tension liquid-gas", "setting": "[2]; x2 = 0.6006", "result": "25.98 ± 0.28", "unit": "mN/m"}, {"measurement": "surface tension liquid-gas", "setting": "[2]; x2 = 0.7005", "result": "25.51 ± 0.28", "unit": "mN/m"}, {"measurement": "surface tension liquid-gas", "setting": "[2]; x2 = 0.8002", "result": "25.03 ± 0.27", "unit": "mN/m"}, {"measurement": "surface tension liquid-gas", "setting": "[2]; x2 = 0.9007", "result": "24.51 ± 0.27", "unit": "mN/m"}]}, {"compound": "Cc1ccccc1C", "note": "[1,2-dimethylbenzene]", "values": [{"measurement": "surface tension liquid-gas", "setting": "[1]", "result": "29.35 ± 0.3", "unit": "mN/m"}, {"measurement": "mass density", "setting": "[1]", "result": "875.92 ± 0.42", "unit": "kg/m3"}]}, {"compound": "CCC(C)=O", "note": "[butanone] + Cc1ccccc1C", "values": [{"measurement": "surface tension liquid-gas", "setting": "[2]; x1 = 0.1001", "result": "29 ± 0.3", "unit": "mN/m"}, {"measurement": "surface tension liquid-gas", "setting": "[2]; x1 = 0.2028", "result": "28.58 ± 0.3", "unit": "mN/m"}, {"measurement": "surface tension liquid-gas", "setting": "[2]; x1 = 0.3001", "result": "28.17 ± 0.3", "unit": "mN/m"}, {"measurement": "surface tension liquid-gas", "setting": "[2]; x1 = 0.4017", "result": "27.68 ± 0.29", "unit": "mN/m"}, {"measurement": "surface tension liquid-gas", "setting": "[2]; x1 = 0.5006", "result": "27.19 ± 0.29", "unit": "mN/m"}, {"measurement": "surface tension liquid-gas", "setting": "[2]; x1 = 0.6018", "result": "26.65 ± 0.28", "unit": "mN/m"}, {"measurement": "surface tension liquid-gas", "setting": "[2]; x1 = 0.7012", "result": "26.11 ± 0.28", "unit": "mN/m"}, {"measurement": "surface tension liquid-gas", "setting": "[2]; x1 = 0.8006", "result": "25.55 ± 0.28", "unit": "mN/m"}, {"measurement": "surface tension liquid-gas", "setting": "[2]; x1 = 0.8994", "result": "24.96 ± 0.27", "unit": "mN/m"}]}, {"compound": "CCC(C)=O", "note": "[butanone] + Cc1ccc(C)cc1", "values": [{"measurement": "surface tension liquid-gas", "setting": "[2]; x1 = 0.0999", "result": "27.58 ± 0.29", "unit": "mN/m"}, {"measurement": "surface tension liquid-gas", "setting": "[2]; x1 = 0.2007", "result": "27.27 ± 0.29", "unit": "mN/m"}, {"measurement": "surface tension liquid-gas", "setting": "[2]; x1 = 0.3001", "result": "26.95 ± 0.29", "unit": "mN/m"}, {"measurement": "surface tension liquid-gas", "setting": "[2]; x1 = 0.402", "result": "26.62 ± 0.28", "unit": "mN/m"}, {"measurement": "surface tension liquid-gas", "setting": "[2]; x1 = 0.5001", "result": "26.28 ± 0.28", "unit": "mN/m"}, {"measurement": "surface tension liquid-gas", "setting": "[2]; x1 = 0.6006", "result": "25.91 ± 0.28", "unit": "mN/m"}, {"measurement": "surface tension liquid-gas", "setting": "[2]; x1 = 0.7009", "result": "25.51 ± 0.28", "unit": "mN/m"}, {"measurement": "surface tension liquid-gas", "setting": "[2]; x1 = 0.8009", "result": "25.12 ± 0.27", "unit": "mN/m"}, {"measurement": "surface tension liquid-gas", "setting": "[2]; x1 = 0.8999", "result": "24.71 ± 0.27", "unit": "mN/m"}]}, {"compound": "CCC(C)=O", "note": "[butanone]", "values": [{"measurement": "surface tension liquid-gas", "setting": "[1]", "result": "24.28 ± 0.27", "unit": "mN/m"}, {"measurement": "mass density", "setting": "[1]", "result": "799.62 ± 0.57", "unit": "kg/m3"}]}, {"compound": "Cc1cccc(C)c1", "note": "[1,3-dimethylbenzene] + CCC(C)=O", "values": [{"measurement": "surface tension liquid-gas", "setting": "[2]; x2 = 0.1044", "result": "27.99 ± 0.3", "unit": "mN/m"}, {"measurement": "surface tension liquid-gas", "setting": "[2]; x2 = 0.2015", "result": "27.66 ± 0.3", "unit": "mN/m"}, {"measurement": "surface tension liquid-gas", "setting": "[2]; x2 = 0.3028", "result": "27.29 ± 0.29", "unit": "mN/m"}, {"measurement": "surface tension liquid-gas", "setting": "[2]; x2 = 0.4011", "result": "26.93 ± 0.29", "unit": "mN/m"}, {"measurement": "surface tension liquid-gas", "setting": "[2]; x2 = 0.5013", "result": "26.53 ± 0.28", "unit": "mN/m"}, {"measurement": "surface tension liquid-gas", "setting": "[2]; x2 = 0.6009", "result": "26.11 ± 0.28", "unit": "mN/m"}, {"measurement": "surface tension liquid-gas", "setting": "[2]; x2 = 0.6999", "result": "25.68 ± 0.28", "unit": "mN/m"}, {"measurement": "surface tension liquid-gas", "setting": "[2]; x2 = 0.7999", "result": "25.24 ± 0.27", "unit": "mN/m"}, {"measurement": "surface tension liquid-gas", "setting": "[2]; x2 = 0.9", "result": "24.76 ± 0.27", "unit": "mN/m"}]}, {"compound": "Cc1cccc(C)c1", "note": "[1,3-dimethylbenzene] + CC(C)=O", "values": [{"measurement": "surface tension liquid-gas", "setting": "[2]; x2 = 0.1027", "result": "28.16 ± 0.3", "unit": "mN/m"}, {"measurement": "surface tension liquid-gas", "setting": "[2]; x2 = 0.1996", "result": "27.95 ± 0.3", "unit": "mN/m"}, {"measurement": "surface tension liquid-gas", "setting": "[2]; x2 = 0.3049", "result": "27.67 ± 0.29", "unit": "mN/m"}, {"measurement": "surface tension liquid-gas", "setting": "[2]; x2 = 0.4029", "result": "27.31 ± 0.29", "unit": "mN/m"}, {"measurement": "surface tension liquid-gas", "setting": "[2]; x2 = 0.4993", "result": "26.91 ± 0.29", "unit": "mN/m"}, {"measurement": "surface tension liquid-gas", "setting": "[2]; x2 = 0.6024", "result": "26.41 ± 0.28", "unit": "mN/m"}, {"measurement": "surface tension liquid-gas", "setting": "[2]; x2 = 0.7002", "result": "25.86 ± 0.28", "unit": "mN/m"}, {"measurement": "surface tension liquid-gas", "setting": "[2]; x2 = 0.801", "result": "25.27 ± 0.27", "unit": "mN/m"}, {"measurement": "surface tension liquid-gas", "setting": "[2]; x2 = 0.9014", "result": "24.66 ± 0.27", "unit": "mN/m"}]}, {"compound": "CC(C)=O", "note": "[acetone]", "values": [{"measurement": "surface tension liquid-gas", "setting": "[1]", "result": "24.01 ± 0.26", "unit": "mN/m"}, {"measurement": "mass density", "setting": "[1]", "result": "784.39 ± 0.61", "unit": "kg/m3"}]}, {"compound": "Cc1ccccc1C", "note": "[1,2-dimethylbenzene] + CC(C)=O", "values": [{"measurement": "surface tension liquid-gas", "setting": "[2]; x2 = 0.0995", "result": "29.13 ± 0.3", "unit": "mN/m"}, {"measurement": "surface tension liquid-gas", "setting": "[2]; x2 = 0.2016", "result": "28.84 ± 0.3", "unit": "mN/m"}, {"measurement": "surface tension liquid-gas", "setting": "[2]; x2 = 0.3047", "result": "28.45 ± 0.3", "unit": "mN/m"}, {"measurement": "surface tension liquid-gas", "setting": "[2]; x2 = 0.403", "result": "28.07 ± 0.29", "unit": "mN/m"}, {"measurement": "surface tension liquid-gas", "setting": "[2]; x2 = 0.4999", "result": "27.58 ± 0.29", "unit": "mN/m"}, {"measurement": "surface tension liquid-gas", "setting": "[2]; x2 = 0.6017", "result": "26.99 ± 0.29", "unit": "mN/m"}, {"measurement": "surface tension liquid-gas", "setting": "[2]; x2 = 0.6991", "result": "26.34 ± 0.28", "unit": "mN/m"}, {"measurement": "surface tension liquid-gas", "setting": "[2]; x2 = 0.7998", "result": "25.65 ± 0.28", "unit": "mN/m"}, {"measurement": "surface tension liquid-gas", "setting": "[2]; x2 = 0.9002", "result": "24.86 ± 0.27", "unit": "mN/m"}]}]}
